Reference: US8258128B2, “Organic compounds” (Novartis AG, priority 2006, dated 2012)
Where a name gives a salt, the structure may show the parent alone.

Key:
[1] = test system: collagen-induced arthritis in the rats; assay: Collagen-induced arthritis in the rats, histological evaluation of hind paws; assay type: in vivo, rat; conditions: 1 mg/kg/day p.o., day 11
Method: (§1) Method: For this study, COMPOUND A and COX-inhibitor Diclofenac are dissolved in a solvent containing 5% of glucose (5 ml/kg). Compounds are given orally once a day. Female rats of the WAGxBUF/F1 crossbred strain (weight 130 g) are used. The animals are divided into several groups, one placebo group (N=8), and four treatment groups (each N=7-8). Treatment starts on peak of disease (day 0) and continues for 11 days. Swelling is assessed at regular time intervals by measuring the external thickness of the hind paws in the region of the metatarsals using a micro-caliper. Tissue samples for histological evaluation are obtained at the end of the in vivo experiment, 5 h after the last oral dose of COMPOUND A or placebo on day 11.
Hind paws from control arthritic rats (vehicle-treated), taken post-mortem at the end of day 11 of the treatment, obtained relatively high histological scorings compared to histological scores of animals treated with COMPOUND A (0.3, 1, 3 and 9 mg/kg) or Diclofenac (1 mg/kg).

[2] = test system: collagen-induced arthritis in the rats; assay: Collagen-induced arthritis in the rats, hind paw swelling; assay type: in vivo, rat
Description: Animal models of RA need to reflect at least some of the features found in human RA (Billingham et al., 1979). Collagen-induced arthritis (CIA) has been proposed to meet these requirements (Durie et al., 1994). Especially the similarity in the joint pathophysiology makes this animal model most attractive for the evaluation of anti-rheumatic drugs (Takeshita et al., 1997). Synovial hyperplasia, which is an integral part of the disease, parallels the migration of leukocytes into the joint space; erosion and destruction of the cartilage surface can also be found (Holmdahl et al., 1985). The rat CIA, originally described by Trentham et al. (1977), was established and extensive studies with CsA were done, including three-dimensional magnetic resonance imaging (MRI) and histology (Beckmann et al., 1995; 1998). Differences in the susceptibility of several rat strains for the development of the disease have been reported (Cremer et al., 1995; Kamada et al., 1997; Knoerzer et al., 1997).
as §1
Results shown are means±SEM of groups of each 4-8 animals of paw diameters in mm on day-12 (before the immunization with Type II collagen in incomplete Freund's adjuvant), day 0 (start of treatment) and day 11 (end of treatment).
The data shown represent the ability of the treatment (COMPOUND A at 4 different increasing doses) to reduce the volume of the hind paw measured at day 2, day 7 and day 11.

[3] = test system: rat carrageenan edema model; assay: Carrageenan edema in the rat (paw swelling); assay type: in vivo; conditions: for % inhibition of paw swelling: 3 mg/kg p.o.
Method: Carrageenan edema in the rat: The effects of COMPOUND A are investigated in the carrageenan edema model. In this model an acute paw swelling is induced by the sub-plantar injection of carrageenan. The paw swelling has a duration of approximately 8 hours and is completely resolved at 24 hours. The model is used to assess anti-inflammatory activities of new therapeutics and is also sensitive to drugs such as COX-inhibitors like Diclofenac, which is used as a positive control compound in the model.
Method: Male OFA rats (5 animals/group) are treated orally with COMPOUND A (1, 3 and 9 mg/kg), Diclofenac (3 mg/kg) or vehicle (placebo formulation). One hour later (0 hours) the rats receive a 100 μl intra-plantar injection of a 1% w/v carrageenan solution in 0.9% saline in the hind paw and the diameter of the paw is measured by means of a micro-caliper. The paw diameter measurements are repeated 3 and 5 hours after injection of the carrageenan. Percentage inhibition of paw swelling at 3 and 5 hours is calculated by reference to vehicle treated animals (0% inhibition).
Edema is induced by a sub-plantar injection of carrageenan in the paw of the rat. Paw diameters are measured at the time of carrageenan injection (0 hours) and at 3 and 5 hours. Compounds are administered 1 hour before the carrageenan injection. COMPOUND A was dosed at 1, 3 and 9 mg/kg p.o. and Diclofenac at 3 mg/kg p.o.

[4] = test system: established Adjuvant-induced arthritis in rats; assay: Established adjuvant-induced arthritis in rats (therapeutic dosing schedule); assay type: in vivo, rat; conditions: 1 mg/kg/day p.o., 7 day treatment (Table 7)
Description: Adjuvant arthritis can be treated using two different dosing schedules; either starting at the time of immunization with adjuvant (prophylactic dosing) or from day 15 when the arthritic response is already established (therapeutic dosing). It is more difficult to inhibit adjuvant arthritis with the therapeutic dosing schedule as compared to the prophylactic schedule. Both versions of adjuvant arthritis are, however, extremely sensitive to the effects of both non-selective COX inhibitors and COX 2 selective inhibitors where 70-90% inhibition of swelling can be achieved at appropriate doses. These models may be predictive for some of the processes thought to be relevant in rheumatoid arthritis.
Method: Female Wistar rats weighing 150-170 g (housed in standard conditions, 5 animals per cage, with food and water ad libitum) are injected i.d. at the base of the tail with 0.1 ml of mineral oil containing 0.6 mg of lyophilized heat-killed Mycobacterium tuberculosis. The rats are treated orally with COMPOUND A or placebo formulation from day 15 to day 22 (therapeutic dosing schedule) or with COMPOUND A from day 0 to day 14 after immunization (prophylactic dosing schedule). At the end of the experiment, the swelling of the tarsal joints is measured by means of a micro-caliper. For the comparison study to Diclofenac both compounds are given from day 15 to day 29 with readouts at day 22 and 29. Percentage inhibition of paw swelling is calculated by reference to placebo treated arthritic animals (0% inhibition) and placebo treated normal animals (100% inhibition). Five animals are used per group. Data are analyzed using Kruskal-Wallis non-parametric ANOVA followed by Dunn's Multiple Comparison test.

What does the source list for O=C(O)Cc1ccccc1Nc1c(Cl)cccc1Cl [Diclofenac, sodium salt of 2-[(2,6-dichlorophenyl)amino]benzeneacetic acid, reference compound]?
Bone apposition, effect on histological score [1]: −38%; Cartilage damage, effect on histological score [1]: −32%; Infiltration of cells, effect on histological score [1]: −22%; Loss of PG, effect on histological score [1]: −24%; hind paw diameter, mean ± SEM ([2]; 1 mg/kg group, Day 0 (start of treatment)): 5.300 ± 0.265 mm; hind paw diameter, mean ± SEM ([2]; 1 mg/kg group, Day −12 (before immunization)): 3.038 ± 0.024 mm; median inhibition of swelling, analysis of the AUC during day 0 to 11 ([2]; 1 mg/kg per day p.o.): 57±9.9%; hind paw diameter, mean ± SEM ([2]; 1 mg/kg per day p.o., Day 11 (end of treatment)): 3.750 ± 0.029 mm; % inhibition of paw swelling ([3]; 3 hrs after carrageenan): 91%; % inhibition of paw swelling ([3]; 5 hrs after carrageenan): 87%; inhibition in the carrageenan edema model ([3]; 3 mg/kg, at both times (3 and 5 hours)): 87-91%; Swelling (mm) ± S.D. [4]: 4.27 ± 0.31 mm

With COC1=Nc2cc(Cl)ccc2/C(=C/C(=O)O)c2sccc21 [Compound 1.001, [7-Chloro-10-methoxy-3-thia-9-aza-benzo[f]azulen-(4Z)-ylidene]-acetic acid] as the compound, how does the melting point read?
The melting point was 186 to 188 °C.
